How the values were obtained:
CYP3A4 [1] = assay: CYP3A4 expression and inducibility in HH (immunoblotting); format: cell-based, human; details: HH cultured with DMSO2, 7-day treatment
Description: Then, and total RNA and cell lysates were subjected to immunoblotting analysis (left) and qPCR analysis (right) to determine the inducibility of indicated molecules. Graph bars represent mean±SD; *, ** and *** indicate p<0.05 and p<0.01 and p<0.001 by one-way ANOVA.

HH [2] = assay: Screen of organic compounds as DMSO substitution: morphology and hepatocyte marker gene expression of recovered HH; format: cell-based, human; details: substitution for DMSO, additional 7 and 14 days culture
Description: Then, total cell lysates were subjected to immunoblotting analysis for the detection of indicated molecules. NT; non treatment.
Then, HH was subjected to immunofluorescent analysis for the detection of MRP2 (Arrowheads), F-actin, DAPI. The bar indicates 25 μm.
In search of the DMSO substitution, we screened numerous organic compounds. The list of chemicals (Table 3) is selected based on the shared characteristics with DMSO, such as but not limited to the molecular size, solubility to the cell culture medium, stability at the standard temperature (melting and boiling temperatures), feasibility in handling (no significant chemical hazardous concern), and the cost. […] With the highest possible concentration, recovered HH (7 days old) were cultured for additional 7 and 14 days with refreshing of the medium at a frequency of every 3-4 days. On day 14 and 21, cells were subjected to the morphological and cell fate assessment along with the functional assessment (FIGS. 7 and 8).

CYP3A4 [3] = target: T1, CYP3A4 (Homo sapiens, UniProt P08684); assay: CYP3A4 activity in cultured HH, P450-Glo Assays; format: in vitro ADME; details: in the presence of the organic compound
T1 construct: endogenous in cells; host or cells: freshly isolated human hepatocytes (HH) in culture
Protocol: (§1) Then, cells were used for the assessment of CYP3A4 (left), and CYP2A9 (middle) activity in the presence of organic compounds (DMSO or DMSO2) using P450-Glo™ Assays (Promega). For the assessment of CYP2E1 activity (right) was assessed using Vivid™ CYP2E1 Blue Screening Kit (Thermo Fisher). Graph bars represent mean±SD; *, ** and *** indicate p<0.05 and p<0.01 and p<0.001 by one-way ANOVA; n.s, not significant; n.d., not detected.

CYP2E1 [4] = target: CYP2E1 (Homo sapiens, UniProt P05181); assay: CYP2E1 activity, Vivid CYP2E1 Blue Screening Kit; details: in the presence of the organic compound
Protocol: as §1
For the assessment of CYP2E1 activity (right) was assessed using VividTM CYP2E1 Blue Screening Kit (Thermo Fisher).

HH [5] = assay: Ethanol metabolism to acetate by cultured HH (Acetate Colorimetric Assay Kit); format: cell-based; details: 10 mM ethanol, 24 hours, sealing apparatus, compared with human liver
Protocol: Then, HH were cultured with either DMSO or DMSO2 containing maintenance/application medium in the absence (0 mM) or presence of 10 mM ethanol for 24 hours. The sealing apparatus was applied throughout the course of ethanol treatment. At the end of the ethanol treatment, cell culture medium was harvested followed by the measurement of acetate concentration using Acetate Colorimetric Assay Kit (Biovision). […] The rate of acetate production was normalized by the cell number of the […] in order to assess the comparability of EtOH metabolizing capacity of HH with each given condition to that of the health human liver (right).

HH [6] = assay: Role of DMSO in the cell fate recovery of freshly isolated HH; format: cell-based, human; details: 7 days
Description: Then, HH were subjected to (A) immunofluorescent analysis for the detection of MRP2 (Arrowheads), (B) immunoblotting and (C) qPCR analysis for the detection of indicated hepatocytes marker molecules at the indicated time points.

ADH = ADH activity (NADH production rate, absorbance at 340 nm) in HH cell homogenate; format: biochemical, human; details: in the presence of the organic compound
Protocol: Hepatoma cells (Huh7 and HepG2) were used as negative controls. (B) The relative ADH activity of HH were assessed in the absence of organic compounds (NT), as well as in the presence of DMSO or DMSO2 using the same method described in (A).

CYP2A9 = CYP2A9 (Homo sapiens, UniProt P11712); details: HH, in the presence of the organic compound
Protocol: as §1

HH [7] = assay: Withdrawal of DMSO from recovered HH: MRP2 immunofluorescence, immunoblotting, qPCR; format: cell-based, human; details: after 7 days recovery, additional 4 days
Description: Then, HH were subjected to (A) immunofluorescent analysis for the detection of MRP2 (Arrowheads), (B) immunoblotting and (C) qPCR analysis for the detection of indicated hepatocytes marker molecules. The bar indicates 25 μm.

CYP2E1 [8] = format: cell-based; details: human, 7 days
Protocol: FIG. 9 show the impact of DMSO on the inducibility of CYP genes. Freshly isolated HHs were cultured for 7 days with HH recovery media (dHCGM) followed by the maintenance/application medium containing DMSO or DMSO2 for another 7 days in the presence of indicated concentration of CYP3A4 inducers ([…] and carbamazepine) (left) and CYP2El inducers (ethanol and isoniazid) (right). Then, and total RNA and cell lysates were subjected to immunoblotting analysis (left) and qPCR analysis (right) to determine the inducibility of indicated molecules.

HH [9] = details: HH cultured with DMSO2-containing medium, only when tight-sealing apparatus is applied
Description: Due to the high volatility of ethanol, it evaporates rapidly at a much higher rate that the rate of hepatocytes metabolizes.

T1 sequence (P08684 whole entry): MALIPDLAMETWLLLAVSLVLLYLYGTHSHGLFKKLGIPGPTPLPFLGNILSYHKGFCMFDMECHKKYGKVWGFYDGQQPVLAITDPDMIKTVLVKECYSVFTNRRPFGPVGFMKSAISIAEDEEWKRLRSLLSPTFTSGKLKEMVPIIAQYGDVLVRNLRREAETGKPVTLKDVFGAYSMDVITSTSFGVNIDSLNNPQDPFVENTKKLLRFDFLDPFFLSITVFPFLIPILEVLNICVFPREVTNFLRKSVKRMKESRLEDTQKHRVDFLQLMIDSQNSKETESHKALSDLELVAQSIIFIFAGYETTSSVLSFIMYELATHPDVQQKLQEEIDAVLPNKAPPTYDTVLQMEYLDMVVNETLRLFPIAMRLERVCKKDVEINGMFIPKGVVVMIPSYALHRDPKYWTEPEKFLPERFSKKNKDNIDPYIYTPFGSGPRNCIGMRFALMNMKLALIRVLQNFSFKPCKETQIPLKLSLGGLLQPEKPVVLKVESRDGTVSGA
Sequence of CYP2E1 (Homo sapiens, UniProt P05181) (P05181 whole entry): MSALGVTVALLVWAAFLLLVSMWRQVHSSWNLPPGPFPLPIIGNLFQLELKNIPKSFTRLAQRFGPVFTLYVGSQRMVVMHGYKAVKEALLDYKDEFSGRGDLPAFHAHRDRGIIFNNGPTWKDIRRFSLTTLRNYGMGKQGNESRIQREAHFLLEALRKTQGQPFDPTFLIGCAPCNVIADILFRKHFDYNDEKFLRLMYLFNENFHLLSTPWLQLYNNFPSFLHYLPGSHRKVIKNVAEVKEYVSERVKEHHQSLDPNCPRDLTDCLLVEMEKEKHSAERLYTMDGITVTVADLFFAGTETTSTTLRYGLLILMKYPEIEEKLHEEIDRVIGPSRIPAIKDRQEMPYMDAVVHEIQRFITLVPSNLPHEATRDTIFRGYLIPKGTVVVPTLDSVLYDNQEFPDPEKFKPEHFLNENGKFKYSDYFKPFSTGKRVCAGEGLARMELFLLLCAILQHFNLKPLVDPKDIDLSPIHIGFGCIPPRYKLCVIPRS
Sequence of CYP2A9 (P11712 whole entry): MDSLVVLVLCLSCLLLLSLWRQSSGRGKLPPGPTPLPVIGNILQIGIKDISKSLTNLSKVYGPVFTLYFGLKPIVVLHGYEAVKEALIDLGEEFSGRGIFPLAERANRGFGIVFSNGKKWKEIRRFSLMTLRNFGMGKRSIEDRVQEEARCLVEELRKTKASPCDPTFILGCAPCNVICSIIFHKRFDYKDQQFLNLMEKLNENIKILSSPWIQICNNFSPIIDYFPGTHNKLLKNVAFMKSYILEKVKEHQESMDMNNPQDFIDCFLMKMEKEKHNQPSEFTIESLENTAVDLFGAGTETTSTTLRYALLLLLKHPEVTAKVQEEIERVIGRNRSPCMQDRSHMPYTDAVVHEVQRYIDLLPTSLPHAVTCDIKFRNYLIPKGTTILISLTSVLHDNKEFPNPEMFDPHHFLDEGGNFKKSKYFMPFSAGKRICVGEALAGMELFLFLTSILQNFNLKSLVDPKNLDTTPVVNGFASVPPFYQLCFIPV

| CYP2E1 induction by inducer (CYP2E1 [8]) | Compound | maintenance of morphology and marker genes expression of recovered HH (HH [2]) | effect on metabolic activity of CYP3A4 (CYP3A4 [3]) | effect on metabolic activity of CYP2E1 / CYP2E1 pathway (CYP2E1 [4]) | effect on ADH activity / ADH pathway (ADH) | also measured |
| --- | --- | --- | --- | --- | --- | --- |
| lack of CYP2E1 induction | CCO [Ethanol] |  |  |  |  | lipid droplet accumulation in HH (HH [9]): accumulation of lipid droplet (LD) |
| lack of CYP2E1 induction | NNC(=O)c1ccncc1 [Isoniazid] |  |  |  |  |  |

Further lines, the molecule ahead of its results:

| Compound | CYP2E1 induction by inducer (CYP2E1 [8]) | maintenance of morphology and marker genes expression of recovered HH (HH [2]) | effect on metabolic activity of CYP3A4 (CYP3A4 [3]) | effect on metabolic activity of CYP2E1 / CYP2E1 pathway (CYP2E1 [4]) | effect on ADH activity / ADH pathway (ADH) | also measured |
| --- | --- | --- | --- | --- | --- | --- |
| NC(=O)N1c2ccccc2C=Cc2ccccc21 [Carbamazepine] |  |  |  |  |  | CYP3A4 induction by inducer (CYP3A4 [1]): CYP3A4 induction in a dose dependent manner |
| CS(C)(=O)=O [DMSO2, dimethyl sulfone] |  | capable of maintaining the morphology and the marker genes expression at a level comparable to that of DMSO-containing medium | substantially less than that of DMSO-containing medium | substantially less than that of DMSO-containing medium |  |  |
| C[S+](C)[O-] [DMSO, dimethyl sulfoxide] |  |  | potently prohibits | reciprocal changes were also seen in CYP2E1 | inhibition of ADH activity | ethanol metabolism by HH (acetate production) (HH [5]): inhibition of ethanol metabolism to the production of acetate; recovery of HH from cell injury and stress when cultured without DMSO during Phase 1 (HH [6]): would not promote the recovery; effect on CYP2A9 activity (CYP2A9): inhibition of DMPK enzymes; effect of withdrawal of DMSO on hepatocytic function and morphology (HH [7]): rapid deterioration of the hepatocytic function and morphology |
| [O-][S+]1CCCC1 [TMSO, Tetramethylene sulfoxide] |  | capable of maintaining the morphology and the marker genes expression at a level comparable to that of DMSO-containing medium |  |  | inhibition of alcohol metabolism enzymes |  |
